In patent publication US12552747B2, “Amino acid derivative containing non-steroidal anti-inflammatory drug structure and preparation method and application thereof” (priority 2020, dated 2026):
Marks after values point to notes of the source that are not given here.

Test system: Liver cancer SK-hep1 cells
Assay: In vitro antitumor activity test (MTT), SK-hep1
Format: cell-based
Settings: Homo sapiens, 24 h
Experimental: (§1) 13 human tumor cell lines were selected and cultured in RPMI-1640 medium (Gibco company) containing 10% inactivated fetal bovine serum, 100 U/ml penicillin and 100 U/ml streptomycin, cultured at 37° C. in a 5% CO2 incubator, and passaged once every 2 days. Using the MTT method, cells in the logarithmic growth phase were digested with 0.25% trypsin, centrifuged at 1000 r/min for 5 min, 8×10^3 cells were added to each well, and seeded in a 96-well plate, and 180 μl of cell suspension was added to each well, and a blank was set at the same time. The 96-well plate inoculated with tumor cells was placed in a carbon dioxide incubator for 24 hours, and then 20 μl of the drug was added, and an equal volume of culture medium was added to the blank control well, and the drug was divided into 8 concentrations from 50 μg/L to 0.4 μg/L. Three duplicate wells were set for each drug concentration and placed in an incubator for 24 h. 10 μl of MTT solution (5 mg/ml) was added to each well, and the culture was continued for 4 h. The supernatant was aspirated and discarded, 100 μl of dimethyl sulfoxide (DMSO) solution was added to each well, placed on a micro shaker for 10 min, and the absorbance (A value) was measured at a wavelength of 492 nm in a microplate reader, and the inhibition rate of the drug on tumor cells was calculated according to the following formula.
(§2) In this test, the IC50 value of the compound on tumor cells was calculated by the Origin software according to the inhibition rate of the compound. AC-201 in the following table was the abbreviation of PL-AC-201, and so on.

| Compound | IC50 [nM] |
| --- | --- |
| CC(=O)Oc1ccccc1C(=O)NC(Cc1ccc(-c2ccccc2)cc1)C(=O)NC1CC(C)(C)NC(C)(C)C1 (centres unmarked) [PL-AC-201] | 16.2 |

Test system: Lung cancer H460 cells
Assay: In vitro antitumor activity test (MTT), H460
Format: cell-based
Settings: Homo sapiens, NCI-H460, 24 h
Experimental: as §1, §2

| Compound | IC50 [nM] |
| --- | --- |
| CC(=O)Oc1ccccc1C(=O)NC(Cc1ccc(-c2ccccc2)cc1)C(=O)NC1CC(C)(C)NC(C)(C)C1 (centres unmarked) [PL-AC-201] | 21.9 |

Test system: Breast cancer MCF-7 cells
Assay: In vitro antitumor activity test (MTT), MCF-7
Format: cell-based
Settings: Homo sapiens, MCF7; Breast cancer MCF-7, MTT, 24 h
Experimental: as §1, §2

| Compound | IC50 [nM] |
| --- | --- |
| CC(=O)Oc1ccccc1C(=O)NC(Cc1ccc(-c2ccccc2)cc1)C(=O)NC1CC(C)(C)NC(C)(C)C1 (centres unmarked) [PL-AC-201] | 24.3 |

Test system: Pancreatic cancer Bxpc-3 cells
Assay: In vitro antitumor activity test (MTT), Bxpc-3
Format: cell-based
Settings: Homo sapiens; Pancreatic cancer Bxpc-3, MTT, 24 h
Experimental: as §1, §2

| Compound | IC50 [nM] |
| --- | --- |
| CC(=O)Oc1ccccc1C(=O)NC(Cc1ccc(-c2ccccc2)cc1)C(=O)NC1CC(C)(C)NC(C)(C)C1 (centres unmarked) [PL-AC-201] | 52.1 |

Test system: Liver cancer HepG-2 cells
Assay: In vitro antitumor activity test (MTT), HepG-2
Format: cell-based
Settings: Homo sapiens, HepG2; Liver cancer HepG-2, MTT, 24 h
Experimental: as §1, §2

| Compound | IC50 [nM] |
| --- | --- |
| CC(=O)Oc1ccccc1C(=O)NC(Cc1ccc(-c2ccccc2)cc1)C(=O)NC1CC(C)(C)NC(C)(C)C1 (centres unmarked) [PL-AC-201] | 16.1 |

Test system: SK-hep1 liver tumors
Assay: Transplanted tumor in nude mice, intraperitoneal, SK-hep1
Format: in vivo, BALB/c nude mice
Settings: SK-hep1, 5 mg/kg i.p. once every 3 days, 8 administrations
Experimental: (§3) BALB/c nude mice were used to inoculate Bel-7402, HepG-2 and SK-hep1 liver tumors according to the transplanted tumor research method under aseptic operation, and the cell density was not less than 5×10^6/ml, 0.2 ml was inoculated subcutaneously in the axilla of the right hind limb of each mouse. After the cells were inoculated, the cells were administered intraperitoneally (concentration: 5 mg/kg), once every 3 days, for a total of 8 administrations. After the 2nd day of drug withdrawal, all tumor-bearing mice were sacrificed, and their body weight, tumor weight and tumor inhibition were weighed.

| Compound | Tumor inhibition rate | Tumor weight [mg] |
| --- | --- | --- |
| CC(=O)Oc1ccccc1C(=O)NC(Cc1ccc(-c2ccccc2)cc1)C(=O)NC1CC(C)(C)NC(C)(C)C1 (centres unmarked) [PL-AC-201] | 61.2** % | 434.7 ± 9.4 |

Same assay, conditions: SK-hep1 tumor-bearing BALB/c mice, 5 mg/kg i.p. once every 3 days, 8 administrations

| Compound | Body Weight After administration [g] |
| --- | --- |
| CC(=O)Oc1ccccc1C(=O)NC(Cc1ccc(-c2ccccc2)cc1)C(=O)NC1CC(C)(C)NC(C)(C)C1 (centres unmarked) [PL-AC-201] | 23.7 ± 1 |

Test system: Colon cancer HT29 cells
Assay: In vitro antitumor activity test (MTT), HT29
Format: cell-based
Settings: Homo sapiens, HT-29, 24 h
Experimental: as §1, §2

| Compound | IC50 [nM] |
| --- | --- |
| CC(=O)Oc1ccccc1C(=O)NC(Cc1ccc(-c2ccccc2)cc1)C(=O)NC1CC(C)(C)NC(C)(C)C1 (centres unmarked) [PL-AC-201] | 35.9 |

Test system: Lung cancer H1299 cells
Assay: In vitro antitumor activity test (MTT), H1299
Format: cell-based
Settings: Homo sapiens, NCI-H1299, 24 h
Experimental: as §1, §2

| Compound | IC50 [nM] |
| --- | --- |
| CC(=O)Oc1ccccc1C(=O)NC(Cc1ccc(-c2ccccc2)cc1)C(=O)NC1CC(C)(C)NC(C)(C)C1 (centres unmarked) [PL-AC-201] | 23.7 |

Test system: Cervical cancer Hela cells
Assay: In vitro antitumor activity test (MTT), Hela
Format: cell-based
Settings: Homo sapiens, 24 h
Experimental: as §1, §2

| Compound | IC50 [nM] |
| --- | --- |
| CC(=O)Oc1ccccc1C(=O)NC(Cc1ccc(-c2ccccc2)cc1)C(=O)NC1CC(C)(C)NC(C)(C)C1 (centres unmarked) [PL-AC-201] | 19.5 |

Test system: not listed separately
Assay: Acute toxicity test of single administration to ICR mice
Settings: mouse, in vivo, intravenous, single tail vein injection, observed 7 days
Experimental: ICR mice, 18-22 g, were raised in a common-grade animal room, fed with common feed, and ingested freely. The group distance and dose were determined after exploring the Dm and Dn of the compounds of the examples. Five concentrations of the compounds of the examples were formulated at the desired dose. The corresponding doses of drugs were injected into the tail vein according to body weight, and the blank control group was injected with normal saline. Immediately after administration, the performance and death of each animal were observed and recorded, and the possible toxic reaction or death of animals within 7 days after a single administration was observed and recorded.

| Compound | LD50 at 7 days [mg/kg] |
| --- | --- |
| CC(=O)Oc1ccccc1C(=O)NC(Cc1ccc(-c2ccccc2)cc1)C(=O)NC1CC(C)(C)NC(C)(C)C1 (centres unmarked) [PL-AC-201] | 27.2 |

Test system: HepG-2 liver tumors
Assay: Transplanted tumor in nude mice, intraperitoneal, HepG-2
Format: in vivo, BALB/c nude mice
Settings: HepG-2, 5 mg/kg i.p. once every 3 days, 8 administrations
Experimental: as §3

| Compound | Tumor inhibition rate | Tumor weight [mg] |
| --- | --- | --- |
| CC(=O)Oc1ccccc1C(=O)NC(Cc1ccc(-c2ccccc2)cc1)C(=O)NC1CC(C)(C)NC(C)(C)C1 (centres unmarked) [PL-AC-201] | 69.3** % | 506.9 ± 9.4 |

Same assay, conditions: HepG-2 tumor-bearing BALB/c mice, 5 mg/kg i.p. once every 3 days, 8 administrations

| Compound | Body Weight After administration [g] |
| --- | --- |
| CC(=O)Oc1ccccc1C(=O)NC(Cc1ccc(-c2ccccc2)cc1)C(=O)NC1CC(C)(C)NC(C)(C)C1 (centres unmarked) [PL-AC-201] | 22.9 ± 1.4 |

Test system: 13 human tumor cell lines
Assay: Average IC50 over the tumor cell lines (MTT)
Format: cell-based
Settings: mean IC50 for each tumor, read-out: AverageIC50
Experimental: as §1, §2
The ratio of the hemolytic concentration MHC of the compound to the mean IC50 for each tumor was referred to as the therapeutic index (TI). The safety of the compound was evaluated by the therapeutic index. The higher the therapeutic index, the greater the safety range of the compound.

| Compound | IC50 [nM] |
| --- | --- |
| CC(=O)Oc1ccccc1C(=O)NC(Cc1ccc(-c2ccccc2)cc1)C(=O)NC1CC(C)(C)NC(C)(C)C1 (centres unmarked) [PL-AC-201] | 28.2 |

Test system: human red blood cells
Assay: Detection of hemolytic activity
Format: cell-based
Settings: hemolytic concentration, in nM
Experimental: 2-3 ml of human blood was drawn using an anticoagulant tube, thoroughly mixed, and kept at 4° C. for later use. 2 ml of blood was aspirated and added with 2-3 ml of PBS, followed by gently pipetting and centrifugation for 5 min at 1000 rpm, which was repeated 3-4 times. After the last centrifugation, PBS was aspirated, PBS was added to 40 ml (20 times the volume), and the number of blood cells at this time was 2×10^8 cells/ml. The red blood cell suspension was added to the plate (U-shaped 96-well plate), and 70 μl/well was used as a negative well. Only PBS was added to blank wells, 140 μl/well. 2 ml of the red blood cell suspension was centrifuged, PBS was discarded, 2 ml of pure water was added, mixed well, and 140 μl/well was used as a positive well. The diluted polypeptide solutions of different concentrations were added to the plate, 70 μl/well. Incubated at 37° C., 87 rpm, shaken for 2h, centrifuged for 5 min at 3000 rpm. The OD value measured by microplate reader: After centrifugation, 90 μl of supernatant was drawn and transferred to a flat-bottom 96-well plate, and the OD value at 578 nm was measured by microplate reader. ODtest-OD negative >0.1 (the first concentration that met the conditions was MHC).

| Compound | MHC [nM] |
| --- | --- |
| CC(=O)Oc1ccccc1C(=O)NC(Cc1ccc(-c2ccccc2)cc1)C(=O)NC1CC(C)(C)NC(C)(C)C1 (centres unmarked) [PL-AC-201] | 5.8e+06 |

Same assay, conditions: human red blood cells, 37° C., 2h; first concentration with ODtest-OD negative >0.1

| Compound | MHC [µg/mL] |
| --- | --- |
| CC(=O)Oc1ccccc1C(=O)NC(Cc1ccc(-c2ccccc2)cc1)C(=O)NC1CC(C)(C)NC(C)(C)C1 (centres unmarked) [PL-AC-201] | 3000 |

Test system: Liver cancer Bel-7402 cells
Assay: In vitro antitumor activity test (MTT), Bel-7402
Format: cell-based
Settings: Homo sapiens; Liver cancer Bel-7402, MTT, 24 h
Experimental: as §1, §2

| Compound | IC50 [nM] |
| --- | --- |
| CC(=O)Oc1ccccc1C(=O)NC(Cc1ccc(-c2ccccc2)cc1)C(=O)NC1CC(C)(C)NC(C)(C)C1 (centres unmarked) [PL-AC-201] | 50.2 |

Test system: Human osteosarcoma MG63 cells
Assay: In vitro antitumor activity test (MTT), MG63
Format: cell-based
Settings: MG-63, 24 h
Experimental: as §1, §2

| Compound | IC50 [nM] |
| --- | --- |
| CC(=O)Oc1ccccc1C(=O)NC(Cc1ccc(-c2ccccc2)cc1)C(=O)NC1CC(C)(C)NC(C)(C)C1 (centres unmarked) [PL-AC-201] | 24.8 |

Test system: Melanoma B16 cells
Assay: In vitro antitumor activity test (MTT), B16
Format: cell-based
Settings: 24 h
Experimental: as §1, §2

| Compound | IC50 [nM] |
| --- | --- |
| CC(=O)Oc1ccccc1C(=O)NC(Cc1ccc(-c2ccccc2)cc1)C(=O)NC1CC(C)(C)NC(C)(C)C1 (centres unmarked) [PL-AC-201] | 29.8 |

Test system: Lung cancer H292 cells
Assay: In vitro antitumor activity test (MTT), H292
Format: cell-based
Settings: Homo sapiens, NCI-H292, 24 h
Experimental: as §1, §2

| Compound | IC50 [nM] |
| --- | --- |
| CC(=O)Oc1ccccc1C(=O)NC(Cc1ccc(-c2ccccc2)cc1)C(=O)NC1CC(C)(C)NC(C)(C)C1 (centres unmarked) [PL-AC-201] | 22.3 |

Test system: Lung cancer A549 cells
Assay: In vitro antitumor activity test (MTT), A549
Format: cell-based
Settings: Homo sapiens, 24 h
Experimental: as §1, §2

| Compound | IC50 [nM] |
| --- | --- |
| CC(=O)Oc1ccccc1C(=O)NC(Cc1ccc(-c2ccccc2)cc1)C(=O)NC1CC(C)(C)NC(C)(C)C1 (centres unmarked) [PL-AC-201] | 29.9 |

Test system: Bel-7402 liver tumors
Assay: Transplanted tumor in nude mice, intraperitoneal, Bel-7402
Format: in vivo, BALB/c nude mice
Settings: Bel-7402, 5 mg/kg i.p. once every 3 days, 8 administrations
Experimental: as §3

| Compound | Tumor inhibition rate | Tumor weight [mg] |
| --- | --- | --- |
| CC(=O)Oc1ccccc1C(=O)NC(Cc1ccc(-c2ccccc2)cc1)C(=O)NC1CC(C)(C)NC(C)(C)C1 (centres unmarked) [PL-AC-201] | ^ΔΔ66.2** % | 268.1 ± 9.6 |

Same assay, conditions: Bel-7402 tumor-bearing BALB/c mice, 5 mg/kg i.p. once every 3 days, 8 administrations

| Compound | Body Weight After administration [g] |
| --- | --- |
| CC(=O)Oc1ccccc1C(=O)NC(Cc1ccc(-c2ccccc2)cc1)C(=O)NC1CC(C)(C)NC(C)(C)C1 (centres unmarked) [PL-AC-201] | 23.2 ± 1.0 |
